Assay results as given in patent US20160367831A1, “IMPLANTABLE MEDICAL DEVICE, SYSTEM AND METHOD FOR INDUCING THROMBOSIS IN AN ARTERY OF A LIVING ANIMAL” (Chang Gung Memorial Hospital, Linkou, priority 2015, published 2016).

Assays:
Type in all cases: in vivo, spontaneously hypertensive rat (SHR)
[1] = tested on: common carotid artery (CCA); test: Histological (H&E) and immunohistochemical (PECAM-1) staining of the CCAs; settings: for thrombus formation, histologic examination (H&E): 3 days
Experimental: The animal of Example 3 and Comparative Example 2 was anesthetized and sacrificed. Both CCAs of Example 3 and Comparative Example 2 were removed and washed in phosphate buffer solution, dehydrated on dry ice, and stored at −80° C. for 24 hours. Before sectioning, all CCAs were embedded in Optimal Cutting Temperature Compound (Tissue Tek, 4583) (Sakura Finetek USA, Inc., Torrance, Calif., USA) and stored at −80° C. for another 12 hours. Cross-sections of the CCAs of Example 3 and Comparative Example 2 (10 μm in thickness) were consecutively cut on a microtome-cryostat. Then, these sections were subjected to hematoxylin and eosin (H&E) staining for evaluation of thrombus formation. For immunohistochemical staining, the slides were treated with cold acetone for 10 minutes and then with methanol with 0.3% H2O2 for 10 minutes. After blocking endogenous peroxidase using a peroxidase blocking reagent (DAKO, Carpinteria, Calif., USA), the primary antibody (anti-PECAM-1 [anti-CD31]) (AbD Serotec, Dusseldorf, Germany) was applied at a dilution of 1:500 overnight at 4° C., followed by a universal immuno-peroxidase polymer (Histofine) (Cosmo Bio, Carlsbad, Calif., USA) for 1 hour at room temperature. Development of color was achieved by exposure for 2 minutes to the DAB chromogen system (DAKO). Endothelium cells were considered positive for PECAM-1 in the presence of intense brown staining.

[2] = tested on: common carotid artery (CCA); test: LED photochemical thrombosis induction in the common carotid artery, ultrasound imaging; settings: for thrombosis formation in the CCA (ultrasound): no irradiation
From the text: A system for inducing thrombosis was provided, including an implantable medical device and an external power controller. The external power controller includes a Class-E amplifier and a resonant transmitting coil. The implantable medical device includes a resonant receiving coil (i.e., the wireless power receiver) and an LED assembly (i.e., the irradiation module) including a surface-mount device type LED (i.e., the light-emitting element) and a LED lens (i.e., the lens element) disposed on the LED. The LED assembly and the resonant receiving coil were hermetically packaged with polydimethylsiloxane (PDMS) (i.e., the encapsulator). An open ditch of approximately 2 mm in width and depth was made on the LED lens, and four cuts (i.e., the engaging groove) were formed on the PDMS. A male spontaneously hypertensive rat (SHR) (i.e., the living animal) was anesthetized with 3% isoflurane in a mixture of 30% oxygen and 70% nitrogen. After the administration of anesthesia, the rat was placed in a supine position. A 1 cm incision was made in the left inguinal area and the femoral vein was carefully dissected. A polyethylene tube to be used for rose bengal injection was inserted in the femoral vein via the dissected incision and secured using 3-0 nylon suture. […] Blunt dissection of the left common carotid artery (CCA) was performed. The CCA was placed into the ditch of the LED lens, and the implantable medical device was secured onto the CCA using 3-0 nylon suture (i.e., the securing strap) to engage the cuts on the PDMS. After the implantation procedure, the surgical wound was sutured and the rat was placed in a prone position near the transmitting coil of the external power controller. After isoflurane was decreased to 1%, rose bengal (Sigma-Aldrich, St. Louis, Mo., USA) was administrated intravenously at a dose of 60 mg/kg. Thereafter, the external power controller was powered to wirelessly drive the LED of the implantable medical device via the resonant receiving coil to irradiate the CCA at a wavelength of 540 nm. […] The LED light power was measured using a Nova handheld laser power meter (Ophir Optronics Solutions, Ltd., Israel). After irradiation, the implantable medical device was removed and the wound was sutured using 3-0 nylon. Ultrasound images of the CCA prior to irradiation (Pre OP), immediately after irradiation (Post OP), 3 days after irradiation (Post OP 3d), and 7 days after irradiation (Post OP 7d) were captured and are shown in FIG. 6.

[3] = tested on: common carotid artery (CCA); test: Magnetic Resonance Angiography (MRA) examination of the CCAs; settings: Example 3: intermittent 4.5 mW/cm2 LED
Experimental: Serial in vivo MRA examination was performed on the CCAs of Example 3 and Comparative Example 2, and the typical MR imaging (MRI) experimental scheme of the time sequence is shown in FIG. 9. Images were acquired using a 7T MRI system (ClinScan 70/30 USR) (Bruker, Rheinstetten, Germany) with a linear body coil. The rat was anaesthetized with 1.5% isoflurane and connected to a respiratory rate monitor. The flow of anesthetic gas was constantly regulated to maintain the breathing rate at approximately 40/min. MRA of the CCAs was performed using the time-of-flight (TOF) method without a contrast agent. Transverse slices (panels (a) to (d) of FIG. 9) were acquired with a fast, low-angle shot (FLASH) using the following parameters: TR=22 ms, TE=4.87 ms, pulse angle=90 degrees, field of view (FQV)=55×42 mm2, and matrix size=58×256. T2-weighted images (panels (e) to (f) of FIG. 9) were acquired using a turbo spin-echo sequence and using the following parameters: TR=2900 ms, TE=37 ms, turbo factor=7, FOV=45×45 mm2, slice thickness=1 mm, and matrix size=240×320. The imaged area covered the CCAs, the carotid bifurcation, the internal carotid artery, and the external carotid artery. Contiguous cross-sectional images were obtained perpendicular to the long axis of the neck. Thrombus formation in the CCAs of Example 3 and Comparative Example 2 was observed by MRA and coronal sequential MR images. […] Because the blood flow of the CCA of Example 3 was disrupted by thrombus, MRA of the CCA of Example 3 was not as bright as the MRA of the CCA of Comparative Example 2 (panel (b) of FIG. 9).

[4] = Example 3: intermittent 4.5 mW/cm2 LED

In the case of `O=C([O-])c1c(Cl)c(Cl)c(Cl)c(Cl)c1-c1c2cc(I)c(=O)c(I)c-2oc2c(I)c([O-])c(I)cc12.[Na+].[Na+]` [rose bengal], the “endothelial cells, PECAM-1 staining” value ([1]; Comparative Example 2: non-irradiated CCA of the same rat) is reported as “intact”, the “endothelial cells, PECAM-1 staining” value [1, 4] is reported as “injured and discontinued” and the “thrombus formation, histologic examination (H&E)” value [1, 4] is reported as “formation of thrombus packed with red blood cells, leucocytes, and platelets”. The “thrombus formation, histologic examination (H&E)” value ([1]; non-irradiated CCA of the same rat) was “no thrombus formation was observed”, the “thrombosis formation in the CCA (ultrasound)” value ([2]; Comparative Example 1: 60 mg/kg i.v., up to 7 days) was “thrombosis did not form” and the “thrombosis formation in the CCA (ultrasound)” value ([2]; Comparative Example 2: right CCA of the Example 3 rat, up to 7 days) was “thrombosis was not formed”. For the same compound, the “thrombosis / occlusion of the CCA (ultrasound)” value (shortened to “thrombosis / occlusion”) ([2]; Comparative Example 5: intermittent LED 4.0 mW/cm2 (2 h, off 30 min, 2 h), up to 1 day) was “disappeared within one day after irradiation”, the “thrombosis / occlusion” value ([2]; Comparative Example 6: intermittent LED 5.0 mW/cm2 (2 h, off 30 min, 2 h), up to 1 day) was “the artery became totally occluded one day after irradiation” and the “thrombosis / occlusion” value ([2]; Example 1: 60 mg/kg i.v., LED 540 nm, 6 mW/cm2 continuously for 4 hours, up to 7 days) was “totally occluded right after irradiation and total occlusion was maintained for 7 days”. For the same compound, the “thrombosis / occlusion” value ([2]; Example 2: 60 mg/kg i.v., LED 5 mW/cm2 continuously for 4 hours, up to 7 days) was “the formed thrombus gradually diminished 3 days after irradiation (Post OP 3d) and totally disappeared at 7 days after irradiation”, the “thrombosis / occlusion” value ([2]; Example 3: 60 mg/kg i.v., LED 4.5 mW/cm2 2 hours, off 30 minutes, 2 hours, up to 7 days) was “the CCA was totally occluded at 7 days after irradiation” and the “thrombus in the CCA (MRA / T2-weighted MRI)” value ([3]; immediately after irradiation) was “the thrombus appeared on the vessel wall”. The “thrombus in the CCA (MRA / T2-weighted MRI)” value ([3]; seven days after irradiation) was “totally occluded” and the “thrombus in the CCA (MRA / T2-weighted MRI)” value ([3]; three days after irradiation) was “enlarged and significantly disrupted blood flow”.
